Test results from ChEMBL document CHEMBL4359824, “Dual FLT3 inhibitors: Against the drug resistance of acute myeloid leukemia in recent decade” (Eur J Med Chem, 2019).
Blank lines part the entries; values can stand above or below the compound they belong to.

Experiments:
MV4-11 [1] = assay: Cytotoxicity against human MV4-11 cells expressing FLT3 ITD mutant; type: functional, cell-based
MOLM-13 [2] = assay: Cytotoxicity against human MOLM13 cells expressing FLT3 ITD mutant; type: functional, cell-based
MV4-11 [3] = assay: Cytotoxicity against human MV4-11 cells; type: functional, cell-based
MOLM-13 [4] = assay: Cytotoxicity against human MOLM13 cells; type: functional, cell-based
MOLM-14 = assay: Cytotoxicity against human MOLM14 cells; type: functional, cell-based
MV4-11 [5] = assay: Antitumor activity against human MV4-11 cells xenografted in SCID/beige mouse assessed as tumor growth inhibition at 75 mg/kg administered daily relative to control; type: functional; details: read-out: TGI
MV4-11 [6] = assay: Antitumor activity against human MV4-11 cells xenografted in SCID/beige mouse assessed as tumor growth inhibition at 100 mg/kg administered daily relative to control; type: functional; details: read-out: TGI
MV4-11 [7] = assay: Antitumor activity against human MV4-11 cells xenografted in SCID/beige mouse assessed as tumor growth inhibition at 50 mg/kg administered daily relative to control; type: functional; details: read-out: TGI
MOLM-13 [8] = assay: Antiproliferative activity against human MOLM13 cells after 48 hrs by CellTiter-Glo assay; type: functional, cell-based; details: MOLM-13, 48 h
MV4-11 [9] = assay: Antiproliferative activity against human MV4-11 cells after 48 hrs by CellTiter-Glo assay; type: functional, cell-based; details: MV4-11, 48 h
[10] = Oral bioavailability in dog; type: ADME, organism-based, Canis lupus familiaris; details: in vivo
[11] = Oral bioavailability in monkey; type: ADME, organism-based, Macaca mulatta; details: rhesus monkey, in vivo
[12] = target: T1, Receptor-type tyrosine-protein kinase FLT3 (Homo sapiens, UniProt P36888); assay: Inhibition of wild type FLT3 (unknown origin) expressed in mouse BAF3 cells; type: cell-based
T1 sequence (P36888 whole entry): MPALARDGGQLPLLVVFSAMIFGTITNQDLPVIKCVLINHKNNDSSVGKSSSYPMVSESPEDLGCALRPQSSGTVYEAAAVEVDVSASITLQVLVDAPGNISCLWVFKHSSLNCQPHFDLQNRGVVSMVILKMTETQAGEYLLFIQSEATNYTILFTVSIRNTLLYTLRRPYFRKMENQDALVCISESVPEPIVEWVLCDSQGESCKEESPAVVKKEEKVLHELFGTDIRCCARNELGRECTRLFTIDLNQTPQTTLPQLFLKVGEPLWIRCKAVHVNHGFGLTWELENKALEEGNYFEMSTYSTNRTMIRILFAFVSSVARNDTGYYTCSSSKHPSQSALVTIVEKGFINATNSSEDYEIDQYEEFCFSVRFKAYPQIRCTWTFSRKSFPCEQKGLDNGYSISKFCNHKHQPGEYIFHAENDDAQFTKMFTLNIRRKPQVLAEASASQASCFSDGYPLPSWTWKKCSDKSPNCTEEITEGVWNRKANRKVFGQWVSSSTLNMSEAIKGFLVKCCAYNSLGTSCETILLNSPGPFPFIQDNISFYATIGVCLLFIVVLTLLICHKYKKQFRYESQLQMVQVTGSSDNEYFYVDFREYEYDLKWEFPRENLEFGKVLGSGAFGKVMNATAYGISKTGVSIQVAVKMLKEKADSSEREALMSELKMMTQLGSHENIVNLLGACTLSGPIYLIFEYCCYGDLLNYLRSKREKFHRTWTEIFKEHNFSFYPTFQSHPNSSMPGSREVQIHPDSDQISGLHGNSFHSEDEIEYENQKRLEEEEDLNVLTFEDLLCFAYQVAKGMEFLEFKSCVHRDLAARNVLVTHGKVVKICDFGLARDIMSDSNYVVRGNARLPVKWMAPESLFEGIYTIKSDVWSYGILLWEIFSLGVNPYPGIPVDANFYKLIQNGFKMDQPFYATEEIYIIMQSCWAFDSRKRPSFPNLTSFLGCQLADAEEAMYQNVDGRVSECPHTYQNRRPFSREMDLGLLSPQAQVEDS

[13] = target: T1, Receptor-type tyrosine-protein kinase FLT3; assay: Inhibition of FLT3 (unknown origin) phosphorylation by [gamma-33P]-ATP assay
[14] = Cytotoxicity against mouse Ba/F3 FLT3-D835Y cells by trypan blue dye exclusion method; type: functional, cell-based; details: BaF3
[15] = Cytotoxicity against mouse BAF3(transformed) cells harboring D835G mutant by trypan blue dye exclusion method; type: functional, cell-based
[16] = target: Dual specificity mitogen-activated protein kinase kinase 1 (Homo sapiens, UniProt Q02750); assay: Inhibition of MEK1 (unknown origin) phosphorylation by [gamma-33P]-ATP assay
Dual specificity mitogen-activated protein kinase kinase 1, sequence (Q02750 whole entry): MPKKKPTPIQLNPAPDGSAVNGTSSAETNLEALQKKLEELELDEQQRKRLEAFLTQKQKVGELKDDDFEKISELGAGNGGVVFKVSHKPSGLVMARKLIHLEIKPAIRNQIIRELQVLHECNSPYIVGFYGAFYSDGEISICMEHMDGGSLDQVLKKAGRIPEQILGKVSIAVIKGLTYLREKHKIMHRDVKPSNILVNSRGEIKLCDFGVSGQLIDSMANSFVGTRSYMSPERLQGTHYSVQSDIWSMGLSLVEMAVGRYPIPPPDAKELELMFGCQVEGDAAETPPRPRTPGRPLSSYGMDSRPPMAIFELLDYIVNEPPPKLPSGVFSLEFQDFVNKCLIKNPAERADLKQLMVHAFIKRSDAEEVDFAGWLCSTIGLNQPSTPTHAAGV

[17] = target: Serine/threonine-protein kinase pim-3 (Homo sapiens, UniProt Q86V86); assay: Binding affinity to Pim-3 (unknown origin)
[18] = target: Serine/threonine-protein kinase pim-1 (Homo sapiens, UniProt P11309); assay: Binding affinity to Pim-1 (unknown origin)
Serine/threonine-protein kinase pim-1, sequence (P11309 whole entry): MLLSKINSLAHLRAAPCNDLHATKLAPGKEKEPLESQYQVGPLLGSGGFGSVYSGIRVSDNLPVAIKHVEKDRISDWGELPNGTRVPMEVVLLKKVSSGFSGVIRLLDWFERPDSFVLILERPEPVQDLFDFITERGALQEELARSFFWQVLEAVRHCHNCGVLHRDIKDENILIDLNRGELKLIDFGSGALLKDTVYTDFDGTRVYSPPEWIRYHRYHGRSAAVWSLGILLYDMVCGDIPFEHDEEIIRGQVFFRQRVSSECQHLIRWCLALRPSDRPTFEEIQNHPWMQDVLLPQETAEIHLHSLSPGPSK

[19] = target: T1, Receptor-type tyrosine-protein kinase FLT3; assay: Binding affinity to FLT3 (unknown origin)
[20] = target: Serine/threonine-protein kinase pim-2 (Homo sapiens, UniProt Q9P1W9); assay: Binding affinity to Pim-2 (unknown origin)
Serine/threonine-protein kinase pim-2, sequence (Q9P1W9 whole entry): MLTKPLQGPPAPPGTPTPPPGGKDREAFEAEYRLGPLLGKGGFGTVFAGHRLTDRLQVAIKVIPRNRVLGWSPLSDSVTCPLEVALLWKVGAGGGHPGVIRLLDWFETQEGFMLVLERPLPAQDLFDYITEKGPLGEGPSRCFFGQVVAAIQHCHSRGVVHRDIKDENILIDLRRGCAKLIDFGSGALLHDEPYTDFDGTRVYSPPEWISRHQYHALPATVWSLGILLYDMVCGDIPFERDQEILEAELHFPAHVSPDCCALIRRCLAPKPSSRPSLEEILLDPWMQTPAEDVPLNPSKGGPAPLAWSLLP

Compound: CC1(COc2ccc3c(c2)ncn3-c2ccc3cccc(N4CCC(N)CC4)c3n2)COC1 [CRENOLANIB]
IC50 (MV4-11 [1]): 1.5 nM | IC50 (MOLM-13 [2]): 4.9 nM

Compound: Cc1n[nH]c2ccc(-c3cncc(OC[C@@H](N)Cc4ccccc4)c3)cc12
EC50 (MV4-11 [3]): 92 nM | EC50 (MOLM-13 [4]): 170 nM | EC50 (MOLM-14): 60 nM

Compound: CC(C)n1c(C2CCNCC2)nc2c([N+](=O)[O-])c(Br)c(Br)cc21 [DAPOLSERTIB]
inhibition in vivo at 75 mg/kg (MV4-11 [5]): 74% | inhibition in vivo at 100 mg/kg (MV4-11 [6]): 82% | inhibition in vivo at 50 mg/kg (MV4-11 [7]): 67%

IC50 (MOLM-13 [8]): 47 nM | IC50 (MV4-11 [9]): 67 nM
Compound: C1=N/C2=N/c3ccc(OCCN4CCCC4)c(c3)COC/C=C/COCc3cccc(c3)C(=C1)N2 [PACRITINIB]

bioavailability [10]: 50% | bioavailability [11]: 100%
Compound: COc1cc2c(N3CCN(C(=O)Nc4ccc(OC(C)C)cc4)CC3)ncnc2cc1OCCCN1CCCCC1 [TANDUTINIB]

IC50 [12]: 618 nM
Compound: COc1cccc2nc(-c3cccs3)nc(NN3C(=O)C=C(C)C3=O)c12 [AS-602868]

Compound: CCNc1cc(O)c2c(c1)/C=C/C[C@H](O)[C@H](O)C(=O)/C=C\[C@@H](C)[C@H](C)OC2=O [E-6201]
IC50 [13]: 5 nM | IC50 [14]: 26000 nM | IC50 [15]: 4600 nM | IC50 [16]: 50 nM

Kd [17]: 0.4 nM | Kd [18]: 2.9 nM | Kd [19]: 3.2 nM | Kd [20]: 3.1 nM
Compound: C[C@]12O[C@H](C[C@H](O)[C@H]1O)n1c3ccccc3c3c4c(c5c6ccccc6n2c5c31)C(=O)NC4=O
